Data on 3 molecules can be found in patent US10052320B2, “Substituted quinoxalines as FGFR kinase inhibitors” (ASTEX THERAPEUTICS LIMITED, priority 2011, dated 2018).

Where two headings read alike, the source gives them in different places.

Assay [1] deals with Ba/F3-FGFR1-transfected cells in the presence of 10 ng/ml murine IL3. Nature of the assay: Ba/F3-FGFR1 (plus IL3) cellular proliferation counterscreen, Alamar Blue. Type of assay: cell-based. The following applies: Mus musculus. In outline: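 24 h cmpd exposure, 37 °C/5% CO2; phenol red-free RPMI-1640, 10% FBS; 20000 cells/well (384) or 10000 cells/well (96); Alamar Blue (0.15 mM resazurin) 4 h; RFU ex 540/em 590.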

The target of assay [2] is T1, Ba/F3-Flt3-transfected cells (Homo sapiens, UniProt P36888, cells depend on it, form not given).
T1 sequence (P36888 1-993): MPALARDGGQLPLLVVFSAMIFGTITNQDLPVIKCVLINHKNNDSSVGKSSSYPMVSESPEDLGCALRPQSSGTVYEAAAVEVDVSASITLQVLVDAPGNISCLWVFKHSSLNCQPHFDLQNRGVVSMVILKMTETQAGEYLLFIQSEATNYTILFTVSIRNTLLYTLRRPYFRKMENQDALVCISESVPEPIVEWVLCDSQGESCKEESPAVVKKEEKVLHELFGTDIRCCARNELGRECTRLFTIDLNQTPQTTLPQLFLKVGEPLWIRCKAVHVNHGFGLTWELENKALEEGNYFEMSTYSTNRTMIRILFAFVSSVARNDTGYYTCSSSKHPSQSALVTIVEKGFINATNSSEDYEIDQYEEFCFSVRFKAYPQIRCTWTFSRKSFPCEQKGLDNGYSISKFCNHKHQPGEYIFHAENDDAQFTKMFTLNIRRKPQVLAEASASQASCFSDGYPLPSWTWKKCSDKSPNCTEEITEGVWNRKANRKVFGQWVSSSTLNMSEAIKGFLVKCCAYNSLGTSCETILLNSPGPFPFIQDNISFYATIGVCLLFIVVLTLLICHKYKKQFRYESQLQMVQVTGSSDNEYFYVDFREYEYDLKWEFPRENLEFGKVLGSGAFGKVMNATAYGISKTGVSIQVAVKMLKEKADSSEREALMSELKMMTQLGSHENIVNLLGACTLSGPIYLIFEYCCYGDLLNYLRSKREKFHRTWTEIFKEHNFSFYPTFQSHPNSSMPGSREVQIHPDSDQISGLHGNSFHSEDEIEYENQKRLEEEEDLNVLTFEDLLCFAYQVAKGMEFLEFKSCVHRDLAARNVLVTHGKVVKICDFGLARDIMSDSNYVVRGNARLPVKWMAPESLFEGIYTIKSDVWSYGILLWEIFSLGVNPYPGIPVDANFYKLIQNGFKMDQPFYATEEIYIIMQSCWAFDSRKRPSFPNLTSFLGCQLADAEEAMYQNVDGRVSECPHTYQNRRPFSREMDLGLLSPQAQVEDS
Briefly: Ba/F3-Flt3 (minus IL3) cellular proliferation assay, Alamar Blue. The class given is cell-based. The following applies: minus IL3.

The mark [3] stands for this setting: plus IL3, 96 well, read-out: BAF3-FGFR 1 (PLUS IL3) 96 well pIC50 (converted).
Where [4] appears, read: plus IL3, 384 well, read-out: BAF3-FGFR 1 (PLUS IL3) 384 well pIC50 (converted).

On to `COc1cc(OC)cc(N(CC2CC2)c2ccc3ncc(-c4nnnn4C)nc3c2)c1` [Compound 83], for which, in assay [1] (setting [3]), the IC50 is > 10 µM. Also, in assay [1] (setting [4]), the IC50 was > 10 µM. In assay [2], the “BAF3-FLT3 (MIN IL3) 96 well pIC50” value is reported as <5 and the “BAF3-FLT3 (MIN IL3) 384 well pIC50” value is listed as <5.

Regarding `COc1cc(OC)cc(N(CC2CC2)c2ccc3ncc(-c4ccn[nH]4)nc3c2)c1` [Compound 58], the IC50 in assay [1] (setting [3]) and in assay [1] (setting [4]) was > 10 µM in each case. The “BAF3-FLT3 (MIN IL3) 96 well pIC50” value in assay [2] was <5. In addition, the “BAF3-FLT3 (MIN IL3) 384 well pIC50” value in assay [2] is on record as <5.

With `COc1cc(OC)cc(N(CCNC(C)C)c2ccc3ncc(-c4ccncc4)nc3c2)c1` [Compound 12], the IC50 in assay [1] (setting [4]) was > 10 µM. Further, the “BAF3-FLT3 (MIN IL3) 384 well pIC50” value in assay [2] is listed as 5.14.
